Where no end group is shown, it is not given here.

This experiment concerns the target T1, HA-tagged PA of FluB (Influenza B virus, UniProt Q9QLI9).
T1 construct: upstream of the initiation codon and antisense primers with a deleted stop codon; made in house; host or cells: human 293T cells, transiently transfected; unpurified cell lysate
In words: biochemical. The class given is binding.

T1 sequence (Q9QLI9 whole entry): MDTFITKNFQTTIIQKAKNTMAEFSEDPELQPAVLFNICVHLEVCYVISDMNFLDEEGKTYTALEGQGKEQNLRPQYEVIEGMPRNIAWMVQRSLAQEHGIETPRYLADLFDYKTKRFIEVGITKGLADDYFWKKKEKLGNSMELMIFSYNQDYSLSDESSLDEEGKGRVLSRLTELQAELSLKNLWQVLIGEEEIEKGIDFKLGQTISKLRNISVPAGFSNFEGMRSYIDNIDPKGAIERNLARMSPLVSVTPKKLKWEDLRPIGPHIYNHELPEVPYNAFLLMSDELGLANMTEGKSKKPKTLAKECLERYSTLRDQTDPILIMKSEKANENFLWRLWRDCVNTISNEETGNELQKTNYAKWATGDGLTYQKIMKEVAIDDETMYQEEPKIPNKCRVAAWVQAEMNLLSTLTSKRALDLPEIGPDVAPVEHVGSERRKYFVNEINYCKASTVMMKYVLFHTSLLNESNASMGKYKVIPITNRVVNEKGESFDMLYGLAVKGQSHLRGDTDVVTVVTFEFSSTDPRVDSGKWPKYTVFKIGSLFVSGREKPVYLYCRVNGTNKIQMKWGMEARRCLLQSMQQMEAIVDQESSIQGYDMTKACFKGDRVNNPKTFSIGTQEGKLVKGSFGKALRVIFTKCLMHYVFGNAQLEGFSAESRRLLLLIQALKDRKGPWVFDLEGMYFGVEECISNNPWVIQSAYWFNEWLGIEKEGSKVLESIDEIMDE

One may read the IC50 as the concentration that gives 50% inhibition. A lower IC50 goes with greater potency. As for MDVNPTFLFLKVPAQ-NH2 [PB11-15 AL7F], the IC50 was more than 3000 nM.
With MDVNPYLLFLKVPAQ-NH2 [PB11-15 AT6Y] the figure was 107 nM; with “MNINPTLLFLKVPIQ-NH2 [PB11-15 AD2N,V3I,L14I]”, more than 3000 nM.
`CC[C@H](C)[C@H](NC(=O)[C@H](CC(N)=O)NC(=O)[C@@H](N)CCSC)C(=O)N[C@@H](CC(N)=O)C(=O)N1CCC[C@H]1C(=O)N[C@H](C(=O)N[C@@H](CC(C)C)C(=O)N[C@@H](CC(C)C)C(=O)N[C@@H](Cc1ccccc1)C(=O)N[C@@H](CC(C)C)C(=O)N[C@@H](CCCCN)C(=O)N[C@H](C(=O)N1CCC[C@H]1C(=O)N[C@@H](C)C(=O)N[C@@H](CCC(N)=O)C(N)=O)C(C)C)[C@@H](C)O` [PB11-15 AD2N,V3I] had an IC50 of more than 3000 nM.
The compound MDVNPYFLFLKVPAQ-NH2 [PB11-15 AT6Y,L7F] yielded an IC50 of 345 nM.
For the compound MDVNPCLLFLKVPAQ-NH2 [PB11-15 AT6C], the IC50 was more than 3000 nM.
The compound MDVNPHLLFLKVPAQ-NH2 [PB11-15 AT6H] had an IC50 of more than 3000 nM.
The compound MDVNPFLLFLKVPAQ-NH2 [PB11-15 AT6F] had an IC50 of 750 nM.
On to “MDVNPTLLFIDVPAQ-NH2 [PB11-15 AL10I,K11D]”, for which the IC50 is more than 3000 nM.
For MDVNPWLLFLKVPAQ-NH2 [PB11-15 AT6W] the value was 628 nM.

The record behind these values is PMC2759517 (PLoS ONE, 2009).
